The record followed here is ChEMBL document CHEMBL1201862, “PubChem BioAssay data set” (2004).

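Cultured in 96-well plates, cells were exposed to test compound for 48 hours across five concentrations. GI50 is the concentration that inhibits growth by half.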 Activity calls are given as the source filed them. Rule as the data show it: active = GI50 up to about 1.1 µM and inactive = higher. Where only a bound is given, the exact number is not on record here.

Some test systems named below: MDA-MB-435; SF-295; SW-620; NCI-H460; NCI/ADR-RES; UO-31; SK-OV-3; OVCAR-3; NCI-H226; KM12; MOLT-4; K562; SNB-19; EKVX; MDA-MB-231; A549; NCI-H23; MCF7; 786-0.
Holding throughout (assay): NCI anticancer screen, dose series, 48 h

On to `Cc1ccc(C(CC(=O)C(C)(C)CN2CCCCC2)SCCS(=O)(=O)O)cc1` (stereo not drawn), for which the GI50 is 23.7 µM (inactive) in the assay on MDA-MB-435; 15 µM (inactive) in the assay with SF-295; 25.8 µM (inactive) with SW-620; 42.3 µM (inactive) in the assay with NCI-H460; 28.8 µM (inactive) with NCI/ADR-RES; 25.2 µM (inactive) in the assay with UO-31. Moreover, the GI50 in the assay with SK-OV-3 is 49.3 µM (inactive); in the assay with OVCAR-3, 15.5 µM (inactive); in the assay on NCI-H226, 30.7 µM (inactive); in the assay on KM12, 31.1 µM (inactive); in the assay on MOLT-4, 20.8 µM (inactive); in the assay on K562, 11.6 µM (inactive). Moreover, the GI50 in the assay on SNB-19 is 57.4 µM (inactive); with EKVX, 21.9 µM (inactive); with MDA-MB-231, 34.7 µM (inactive); in the assay on A549 it was 36.1 µM (inactive); in the assay on NCI-H23, 27.9 µM (inactive); with MCF7, 21.6 µM (inactive). The GI50 with 786-0 was 26.2 µM (inactive).
Regarding `Cc1cc(C)c(S(=O)(=O)N2CCN(S(=O)(=O)c3c(C)cc(C)cc3C)OCCCCCO2)c(C)c1`, the GI50 in the assay with MDA-MB-435, with SF-295, with SW-620, with NCI-H460, with NCI/ADR-RES and with UO-31 was > 100 µM (inactive) in each case. Moreover, the GI50 with SK-OV-3, in the assay on OVCAR-3, in the assay with NCI-H226, in the assay with KM12, with MOLT-4 and with K562 was > 100 µM (inactive) in each case. Moreover, the GI50 with SNB-19, in the assay with EKVX, with A549, in the assay on NCI-H23, in the assay on MCF7 and in the assay on 786-0 was > 100 µM (inactive) each time.
On to `COC(=O)c1c(O)c(C#N)c2[nH]c3ccccc3n2c1=O`, for which the GI50 with MDA-MB-435, with SF-295, in the assay with SW-620, in the assay with NCI-H460, in the assay with NCI/ADR-RES and with UO-31 was > 100 µM (inactive) throughout. The GI50 in the assay with SK-OV-3, in the assay with OVCAR-3, in the assay with NCI-H226, with KM12, in the assay with MOLT-4 and with K562 was > 100 µM (inactive) each time. Further, the GI50 with SNB-19, in the assay on EKVX, in the assay on MDA-MB-231, with A549, with NCI-H23 and with MCF7 was > 100 µM (inactive) each time. For the same compound, the GI50 in the assay with 786-0 was > 100 µM (inactive).
Regarding `COC(=O)[C@H](C)[C@H]1CC[C@@](C)([C@H]2CC3C(C)(C)[C@H]4CCC(C)=C[C@H]4C[C@@]3(C)O2)OO1` (stereo partly drawn), the GI50 is 14.7 µM (inactive) in the assay with SF-295; 8.83 µM (inactive) with SW-620; 2.05 µM (inactive) in the assay with NCI-H460; 6.52 µM (inactive) in the assay with UO-31; 30.5 µM (inactive) in the assay with SK-OV-3; 13.2 µM (inactive) in the assay on OVCAR-3. Moreover, the GI50 is 14.7 µM (inactive) with NCI-H226; 11.7 µM (inactive) with KM12; 7.13 µM (inactive) with MOLT-4; 6.21 µM (inactive) in the assay with K562; 14.8 µM (inactive) in the assay on SNB-19; 13.7 µM (inactive) in the assay with EKVX. The values for the GI50 in the assay on A549, in the assay with NCI-H23 and in the assay with 786-0 were 8.24 µM (inactive), 7.6 µM (inactive) and 3.33 µM (inactive), respectively.
With `NS(=O)(=O)c1ccc(NC(=O)Cc2nc3ccccc3s2)cc1`, the GI50 in the assay on SF-295 was 19 µM (inactive); with SW-620, 17.1 µM (inactive); with NCI-H460 it was 17.5 µM (inactive); in the assay on UO-31, 22.5 µM (inactive); with SK-OV-3, 25.7 µM (inactive); in the assay on OVCAR-3 it was 16.8 µM (inactive). Also, the GI50 is 17.9 µM (inactive) in the assay with NCI-H226; 16.3 µM (inactive) in the assay on KM12; 20.1 µM (inactive) with MOLT-4; 23.6 µM (inactive) in the assay with K562; 23.5 µM (inactive) in the assay on SNB-19; 22.6 µM (inactive) in the assay with EKVX. Further, the GI50 in the assay with A549 is 20.6 µM (inactive); in the assay with NCI-H23, 15.9 µM (inactive); in the assay on 786-0, 19.4 µM (inactive).
Regarding `Cc1cn2c(=O)c3ncn(C4OC(CO)C(O)C4O)c3n(C)c2n1` (stereo not drawn), the GI50 with SF-295, in the assay with SW-620, with NCI-H460, with UO-31, in the assay on SK-OV-3 and in the assay on OVCAR-3 was > 100 µM (inactive) in each case. The GI50 in the assay on NCI-H226, in the assay with KM12, with MOLT-4, with K562, with SNB-19 and with EKVX was > 100 µM (inactive) each time. For the same compound, the GI50 in the assay on A549, in the assay on NCI-H23 and with 786-0 was > 100 µM (inactive) in each case.
In the case of `O=C1c2ccccc2C(=O)c2sc(Nc3cccc(Cl)c3)nc21`, the GI50 in the assay with SF-295 is 1.62 µM (inactive); in the assay with SW-620, 0.802 µM (active); in the assay on NCI-H460 it was 2.07 µM (inactive); with UO-31, 2.3 µM (inactive); in the assay with SK-OV-3, 8.11 µM (inactive); in the assay with OVCAR-3 it was 1.12 µM (active). Besides, the GI50 in the assay on NCI-H226 is 3.96 µM (inactive); in the assay on KM12, 2.03 µM (inactive); in the assay with MOLT-4 it was 0.492 µM (active); in the assay with K562 it was 1.57 µM (inactive); with SNB-19, 2.07 µM (inactive); with EKVX it was 2.38 µM (inactive). Further, the GI50 in the assay with A549 is 2.21 µM (inactive); in the assay on NCI-H23, 1.49 µM (inactive); with 786-0, 1.56 µM (inactive).
Regarding `O=c1c2ccccc2c(=O)c2c1cc(Cl)c1[nH]c3c([nH]c12)c(Cl)cc1c(=O)c2ccccc2c(=O)c13`, the GI50 with SF-295, in the assay with SW-620, in the assay with NCI-H460, in the assay with UO-31, with SK-OV-3 and with OVCAR-3 was > 100 µM (inactive) throughout. For the same compound, the GI50 in the assay with NCI-H226, in the assay on KM12, with MOLT-4, with K562, in the assay on SNB-19 and in the assay on EKVX was > 100 µM (inactive) in each case. Besides, the GI50 in the assay with A549, in the assay with NCI-H23 and with 786-0 was > 100 µM (inactive) each time.
Turning to `CCOc1ccc(/N=C\c2ccc3cc(C)ccc3n2)cc1`, the GI50 was 68.5 µM (inactive) in the assay on SF-295; 58.9 µM (inactive) in the assay with SW-620; 69.3 µM (inactive) with NCI-H460; 31 µM (inactive) in the assay on UO-31; > 100 µM (inactive) in the assay on SK-OV-3; 33.1 µM (inactive) in the assay on OVCAR-3. In addition, the GI50 with NCI-H226 is > 100 µM (inactive); in the assay on KM12, 37.1 µM (inactive); in the assay with MOLT-4, 27.3 µM (inactive); in the assay on K562 it was 25.4 µM (inactive); in the assay on SNB-19, 49 µM (inactive); in the assay on EKVX it was 55.6 µM (inactive). Also, the results for the GI50 with A549, in the assay with NCI-H23 and in the assay with 786-0 were > 100 µM (inactive), > 100 µM (inactive) and 51.6 µM (inactive), respectively.
As to `COc1ccc(OC)c(CNc2ccc(O)c(C(=O)NCCc3ccc(F)cc3)c2)c1`, the GI50 in the assay with MDA-MB-435 is 2.74 µM (inactive); with SF-295 it was 13.7 µM (inactive); with SW-620, 15.7 µM (inactive); in the assay on NCI-H460, 13.2 µM (inactive); in the assay on NCI/ADR-RES, 10.1 µM (inactive); in the assay on UO-31, 7.18 µM (inactive). The GI50 is 17.3 µM (inactive) in the assay on SK-OV-3; 7.57 µM (inactive) with OVCAR-3; 9.71 µM (inactive) with KM12; 4.05 µM (inactive) with MOLT-4; 3.74 µM (inactive) in the assay on K562; 15.1 µM (inactive) with SNB-19. The GI50 was 19.7 µM (inactive) with EKVX; 7 µM (inactive) with MDA-MB-231; 20.7 µM (inactive) in the assay on A549; 17.1 µM (inactive) with NCI-H23; 10.8 µM (inactive) in the assay on MCF7; 23.8 µM (inactive) in the assay with 786-0.
Turning to `N/C(=N\c1ccc(Cl)cc1)c1ccccc1N`, the GI50 in the assay with MDA-MB-435, in the assay on SF-295, in the assay on SW-620, in the assay on NCI-H460, in the assay with NCI/ADR-RES and in the assay with UO-31 was > 100 µM (inactive) each time. The GI50 in the assay on SK-OV-3, in the assay with OVCAR-3, in the assay on NCI-H226, in the assay on KM12, in the assay on MOLT-4 and in the assay with K562 was > 100 µM (inactive) each time. Moreover, the GI50 in the assay on SNB-19, with EKVX, in the assay with MDA-MB-231, in the assay on A549, with NCI-H23 and in the assay with MCF7 was > 100 µM (inactive) each time. The GI50 in the assay on 786-0 is > 100 µM (inactive).
With `O=C(O)CN(c1ccccc1)S(=O)(=O)c1cccc([N+](=O)[O-])c1`, the GI50 with SF-295, in the assay with SW-620, in the assay on NCI-H460, with UO-31, with SK-OV-3 and with OVCAR-3 was > 100 µM (inactive) throughout. Also, the GI50 in the assay on NCI-H226, in the assay with KM12, in the assay with MOLT-4, in the assay with K562, with SNB-19 and in the assay with EKVX was > 100 µM (inactive) each time. In addition, the GI50 in the assay on A549, in the assay with NCI-H23 and in the assay on 786-0 was > 100 µM (inactive) each time.
